Results from ChEMBL document CHEMBL5500403, “Discovery of a Double-Stapled Short Peptide as a Long-Acting HIV-1 Inactivator with Potential for Oral Bioavailability” (J Med Chem, 2024).
Bridge positions count the residues as written; N and C are the ends. Square brackets hold non-standard residues; d marks the D form. Peptide text beside a SMILES is read from it. S5 = C=CCCC[C@](C)(N)C(=O)O

Key:
[1] = test system: Human immunodeficiency virus 1; assay: Antiviral activity against HIV-1 IIIB infected in human MT2 cells assessed as inhibition of viral growth pretreated with virus for 30 mins followed by infection with cells incubated for 72 hrs by ELISA; assay type: functional, organism-based; conditions: Human immunodeficiency virus 1, IIIB
[2] = Cytotoxicity against human MT2 cells; assay type: toxicity, cell-based
[3] = Selectivity index, ratio of CC50 for cytotoxicity against human MT2 cells to IC50 for antiviral activity against HIV-1 IIIB infected in human MT2 cells; assay type: toxicity, cell-based; conditions: read-out: Ratio CC50/IC50
[4] = test system: Human immunodeficiency virus 1; assay: Antiviral activity against T20-resistant HIV-1 NL4-3 harboring […] N42T and N43K mutant infected in human MT2 cells assessed as inhibition of viral growth pretreated with virus for 30 mins followed by infection with cells incubated for 72 hrs by ELISA; assay type: functional, organism-based
[5] = Proteolytic stability assessed as Pepsin (unknown origin) mediated compound degradation incubated for 4 hrs by LC-MS/MS analysis; assay type: ADME; conditions: human
[6] = test system: Human immunodeficiency virus 1; assay: Antiviral activity against T20-resistant HIV-1 NL4-3 harboring […] N38A and N42T mutant infected in human MT2 cells assessed as inhibition of viral growth pretreated with virus for 30 mins followed by infection with cells incubated for 72 hrs by ELISA; assay type: functional, organism-based
[7] = Stability in rat liver assessed as parent compound remaining at 1 ug/ml incubated for 1 hr by LC-MS/MS analysis; assay type: ADME, tissue-based; conditions: at 1 µg/mL, read-out: Stability
chymotrypsin = chymotrypsin (Homo sapiens, UniProt P17538+P40313+Q6GPI1+Q99895); assay: Proteolytic stability assessed as Chymotrypsin (unknown origin) mediated compound degradation by measuring parent compound remaining incubated for 2 hrs by LC-MS/MS analysis; assay type: ADME, protein assay; conditions: read-out: Stability
[8] = Elimination half life in Sprague-Dawley rat at 1 mg/kg,iv administration measured upto 9 days by LC-MS/MS analysis; assay type: ADME, organism-based; conditions: in vivo, time < 9 day, read-out: beta t1/2 (converted)
[9] = test system: Human immunodeficiency virus 1; assay: Antiviral activity against HIV-1 Bal-R5 assessed as reduction in viral growth by measuring p24 antigen level incubated for 2 hrs by ELISA; assay type: functional, organism-based; conditions: Human immunodeficiency virus 1, Bal-R5, 2 h
[10] = test system: Human immunodeficiency virus 1; assay: Antiviral activity against T20-resistant HIV-1 NL4-3 harboring […] N42T and N43K mutant assessed as reduction in viral growth by measuring p24 antigen level incubated for 2 hrs by ELISA; assay type: functional, organism-based
[11] = Proteolytic stability assessed as proteinase K (unknown origin) mediated compound degradation incubated for 4 hrs by LC-MS/MS analysis; assay type: ADME; conditions: human
[12] = test system: Human immunodeficiency virus 1; assay: Antiviral activity against T20-resistant HIV-1 NL4-3 harboring […] V38E and N42S mutant assessed as reduction in viral growth by measuring p24 antigen level incubated for 2 hrs by ELISA; assay type: functional, organism-based
[13] = Drug degradation in rat plasma at 1 ug/ml incubated for 1 hr by LC-MS/MS analysis; assay type: ADME, cell-free; conditions: at 1 µg/mL
[14] = MRT in Sprague-Dawley rat at 1 mg/kg,iv administration measured upto 9 days by LC-MS/MS analysis; assay type: ADME, organism-based; conditions: in vivo, time < 9 day
[15] = Biodistribution in Sprague-Dawley rat brain at 1 mg/kg,iv administration measured after 144 hrs by LC-MS/MS analysis; assay type: ADME, organism-based; conditions: in vivo
[16] = AUClast in Sprague-Dawley rat at 1 mg/kg,iv administration measured upto 9 days by LC-MS/MS analysis; assay type: ADME, organism-based; conditions: in vivo, time < 9 day
[17] = test system: Human immunodeficiency virus 1; assay: Antiviral activity against T20-resistant HIV-1 NL4-3 harboring […] V38E and N42S mutant infected in human MT2 cells assessed as inhibition of viral growth pretreated with virus for 30 mins followed by infection with cells incubated for 72 hrs by ELISA; assay type: functional, organism-based
[18] = test system: Human immunodeficiency virus 1; assay: Antiviral activity against HIV-1 IIIB assessed as reduction in viral growth by measuring p24 antigen level incubated for 2 hrs by ELISA; assay type: functional, organism-based; conditions: Human immunodeficiency virus 1, IIIB
[19] = Drug concentration in Sprague-Dawley rat plasma at 50 mg/kg,po administrated for 5 days by LC-MS/MS analysis; assay type: ADME, organism-based; conditions: in vivo, 120 h, time 5 day
[20] = Total clearance in Sprague-Dawley rat at 1 mg/kg,iv administration measured upto 9 days by LC-MS/MS analysis; assay type: ADME, organism-based; conditions: in vivo, time < 9 day
[21] = test system: Human immunodeficiency virus 1; assay: Antiviral activity against HIV-1 clinical isolate X4-89BZ167 assessed as reduction in viral growth by measuring p24 antigen level incubated for 2 hrs by ELISA; assay type: functional, organism-based; conditions: Human immunodeficiency virus 1, clinical isolate X4-89BZ167, 2 h
[22] = test system: Human immunodeficiency virus 1; assay: Antiviral activity against T20-resistant HIV-1 NL4-3 harboring […] N38A and N42T mutant assessed as reduction in viral growth by measuring p24 antigen level incubated for 2 hrs by ELISA; assay type: functional, organism-based
[23] = Biodistribution in Sprague-Dawley rat brain at 1 mg/kg,iv administration measured after 5 mins by LC-MS/MS analysis; assay type: ADME, organism-based; conditions: in vivo
[24] = Volume of distribution at steady state in Sprague-Dawley rat at 1 mg/kg,iv administration measured upto 9 days by LC-MS/MS analysis; assay type: ADME, organism-based; conditions: in vivo, time < 9 day, read-out: Vdss
[25] = Plasma protein binding in human by LC-MS/MS analysis; assay type: ADME, cell-free; conditions: read-out: PPB (converted)
[26] = Plasma protein binding in rat by LC-MS/MS analysis; assay type: ADME, cell-free; conditions: read-out: PPB (converted)

## CC(=O)NCC(=O)N[C@@H](Cc1c[nH]c2ccccc12)C(=O)N[C@@H](CCC(=O)O)C(=O)N[C@@H](C)C(=O)N[C@@H](CC(C)C)C(=O)N[C@@H](CCCCN)C(=O)N[C@@H](Cc1ccc(O)cc1)C(=O)N[C@@H](CC(C)C)C(=O)N[C@@]1(C)CCC/C=C\CCC[C@@](C)(C(=O)N[C@@H](Cc2ccc(O)cc2)C(=O)N[C@@H](Cc2c[nH]c3ccccc23)C(N)=O)NC(=O)[C@H](CC(C)C)NC(=O)[C@H](CC(C)C)NC(=O)[C@H](CC(N)=O)NC1=O (Ac-GWEALKYL[S5]NLL[S5]YW-NH2; staple (Z) 9-13)
[1]
  IC50: 160 nM
[2]
  CC50: 5870 nM
[3]
  selectivity ratio: 36.9

## CC(=O)NCC(=O)N[C@@H](Cc1c[nH]c2ccccc12)C(=O)N[C@@H](CCC(=O)O)C(=O)N[C@@H](C)C(=O)N[C@@H](CC(C)C)C(=O)N[C@@H](CCCCN)C(=O)N[C@@H](Cc1ccc(O)cc1)C(=O)N[C@@]1(C)CCC/C=C\CCC[C@@](C)(C(=O)N[C@@H](CCC(N)=O)C(=O)N[C@@H](Cc2ccc(O)cc2)C(=O)N[C@@H](Cc2c[nH]c3ccccc23)C(N)=O)NC(=O)[C@H](CC(C)C)NC(=O)[C@H](CC(N)=O)NC(=O)[C@H](Cc2c[nH]c3ccccc23)NC1=O (Ac-GWEALKY[S5]WNL[S5]QYW-NH2; staple (Z) 8-12)
[1]
  IC50: 95.5 nM
[2]
  CC50: 2490 nM
[3]
  selectivity ratio: 26.1

## CC(=O)NCC(=O)N[C@@H](Cc1c[nH]c2ccccc12)C(=O)N[C@@H](CCC(=O)O)C(=O)N[C@@H](C)C(=O)N[C@@]1(C)CCC/C=C\CCC[C@@](C)(C(=O)N[C@@H](CC(N)=O)C(=O)N[C@@H](CC(C)C)C(=O)N[C@@H](CC(C)C)C(=O)N[C@@H](CCC(N)=O)C(=O)N[C@@H](Cc2ccc(O)cc2)C(=O)N[C@@H](Cc2c[nH]c3ccccc23)C(N)=O)NC(=O)[C@H](CC(C)C)NC(=O)[C@H](Cc2ccc(O)cc2)NC(=O)[C@H](CCCCN)NC1=O (Ac-GWEA[S5]KYL[S5]NLLQYW-NH2; staple (Z) 5-9)
[1]
  IC50: > 2000 nM

## CC(=O)NCC(=O)N[C@@H](Cc1c[nH]c2ccccc12)C(=O)N[C@@H](CCC(=O)O)C(=O)N[C@@]1(C)CCC/C=C\CCC[C@@](C)(C(=O)N[C@@H](Cc2c[nH]c3ccccc23)C(=O)N[C@@H](CC(N)=O)C(=O)N[C@@H](CC(C)C)C(=O)N[C@@H](CC(C)C)C(=O)N[C@@H](CCC(N)=O)C(=O)N[C@@H](Cc2ccc(O)cc2)C(=O)N[C@@H](Cc2c[nH]c3ccccc23)C(N)=O)NC(=O)[C@H](Cc2ccc(O)cc2)NC(=O)[C@H](CCCCN)NC(=O)[C@H](CC(C)C)NC1=O (Ac-GWE[S5]LKY[S5]WNLLQYW-NH2; staple (Z) 4-8)
[1]
  IC50: 44.2 nM
[2]
  CC50: 2310 nM
[3]
  selectivity ratio: 52.5

## CC(=O)NCC(=O)N[C@@]1(C)CCC/C=C\CCC[C@@](C)(C(=O)N[C@@H](Cc2ccc(O)cc2)C(=O)N[C@@H](CC(C)C)C(=O)N[C@@H](Cc2c[nH]c3ccccc23)C(=O)N[C@@H](CC(N)=O)C(=O)N[C@@H](CC(C)C)C(=O)N[C@@H](CC(C)C)C(=O)N[C@@H](CCC(N)=O)C(=O)N[C@@H](Cc2ccc(O)cc2)C(=O)N[C@@H](Cc2c[nH]c3ccccc23)C(N)=O)NC(=O)[C@H](CC(C)C)NC(=O)[C@H](C)NC(=O)[C@H](CCC(=O)O)NC1=O (Ac-G[S5]EAL[S5]YLWNLLQYW-NH2; staple (Z) 2-6)
[1]
  IC50: 121 nM
[2]
  CC50: 7180 nM
[3]
  selectivity ratio: 59.3

## CC(=O)N[C@@]1(C)CCC/C=C\CCC[C@@](C)(C(=O)N[C@@H](CCCCN)C(=O)N[C@@H](Cc2ccc(O)cc2)C(=O)N[C@@H](CC(C)C)C(=O)N[C@@H](Cc2c[nH]c3ccccc23)C(=O)N[C@@H](CC(N)=O)C(=O)N[C@@H](CC(C)C)C(=O)N[C@@H](CC(C)C)C(=O)N[C@@H](CCC(N)=O)C(=O)N[C@@H](Cc2ccc(O)cc2)C(=O)N[C@@H](Cc2c[nH]c3ccccc23)C(N)=O)NC(=O)[C@H](C)NC(=O)[C@H](CCC(=O)O)NC(=O)[C@H](Cc2c[nH]c3ccccc23)NC1=O (Ac-[S5]WEA[S5]KYLWNLLQYW-NH2; staple (Z) 1-5)
[1]
  IC50: 34.2 nM
[2]
  CC50: 2670 nM
[3]
  selectivity ratio: 78.5

## CC(=O)N[C@@]1(C)CCC/C=C\CCC[C@@](C)(C(=O)N[C@@H](CCCCN)C(=O)N[C@@H](Cc2ccc(O)cc2)C(=O)N[C@@]2(C)CCC/C=C\CCC[C@@](C)(C(=O)N[C@@H](CCC(N)=O)C(=O)N[C@@H](Cc3ccc(O)cc3)C(=O)N[C@@H](Cc3c[nH]c4ccccc34)C(N)=O)NC(=O)[C@H](CC(C)C)NC(=O)[C@H](CC(N)=O)NC(=O)[C@H](Cc3c[nH]c4ccccc34)NC2=O)NC(=O)[C@H](C)NC(=O)[C@H](CCC(=O)O)NC(=O)[C@H](Cc2c[nH]c3ccccc23)NC1=O (Ac-[S5]WEA[S5]KY[S5]WNL[S5]QYW-NH2; staple (Z) 1-5, 8-12)
[1]
  IC50: 124 nM
[2]
  CC50: 4030 nM
[3]
  selectivity ratio: 32.6

## H-GWEALKYLWNLLQYW-OH
[4]
  IC50: 142 nM
[5]
  Stability: Unstable
[6]
  IC50: 20.1 nM
[7]
  remaining at 1 h, 1 ug/ml: 80%
chymotrypsin
  remaining at 2 h: 32.9%
[8]
  half-life: 3.8 h
[9]
  EC50: 25300 nM
[10]
  EC50: 41.9 nM
[11]
  Stability: Unstable
[12]
  EC50: 371 nM
[13]
  Stability: Stable
[14]
  MRT: 5.4 h
[15]
  Drug uptake: Not Active
[1]
  IC50: 130 nM
[2]
  CC50: 7900 nM
[16]
  AUC(0-t) at 216 h: 114 µg·h/mL
[3]
  selectivity ratio: 60.9
[17]
  IC50: 21.3 nM
[18]
  EC50: 26.1 nM
[19]
  Drug uptake: Not Active
[20]
  clearance: 0.158 mL/min/kg
[21]
  EC50: 98 nM
[22]
  EC50: 30.5 nM
[23]
  Drug uptake: Active
[24]
  Vd: 0.0527 L/kg

## enfuvirtide
[25]
  fraction unbound: 0.187
[9]
  EC50: > 4000 nM
[1]
  IC50: 48.6 nM
[18]
  EC50: > 4000 nM
[26]
  fraction unbound: 0.041
[21]
  EC50: > 4000 nM
